Measurements taken from ChEMBL document CHEMBL5154732, “Discovery of indol-6-yl-pyrrolo[2,3-c]pyridin-7-one derivatives as bromodomain-containing protein 4 (BRD4) inhibitors for the treatment of kidney fibrosis” (Eur J Med Chem, 2022).
Active and inactive are the calls of the source. No cut-off for these calls is given here.

How the values were obtained:
[1] = target: Bromodomain-containing protein 4 (Homo sapiens, UniProt O60885); experiment: Inhibition of His-tagged […] recombinant BRD4 (unknown origin) (21 to 153 residues) using SGRGK(Ac)GGK(Ac)GLGK(Ac)GGAK(Ac)RHRK(Biotin)-OH as substrate measured after 1 hr by HTRF assay
[2] = system: Mus musculus; experiment: Anti-fibrotic activity against unilateral ureteral obstruction kidney injury C57BL/6J mouse model assessed as suppression of UUO-induced alpha-SMA expression in kidney at 100 mg/kg, ip administered daily measured after 7 days by immunohistochemistry staining analysis; format: functional, organism-based; conditions: time 7.0 day
[3] = system: Mus musculus; experiment: Nephroprotective activity against unilateral ureteral obstruction kidney injury C57BL/6J mouse model assessed as decreased fibrotic scores at 100 mg/kg, ip administered for 8 consecutive days by Masson's staining based assay; format: functional, organism-based; conditions: time 8.0 day
[4] = system: Mus musculus; experiment: Nephroprotective activity against unilateral ureteral obstruction kidney injury C57BL/6J mouse model assessed as decreased tubular injury score at 100 mg/kg, ip administered for 8 consecutive days by H & E staining based assay; format: functional, organism-based; conditions: time 8.0 day
[5] = system: Mus musculus; experiment: Nephroprotective activity against unilateral ureteral obstruction kidney injury C57BL/6J mouse model assessed as decreased kidney damage at 100 mg/kg, ip administered for 8 consecutive days by H & E staining based assay; format: functional, organism-based; conditions: time 8.0 day

SMILES | IC50 [1] | other results
Cc1noc(C)c1-c1ccc2ccn(Cc3ccccn3)c2c1 | 481 nM | –
CCC(C)n1ccc2ccc(-c3cn(C)c(=O)c4[nH]ccc34)cc21 (stereo unspecified) | 674 nM | –
Cc1noc(C)c1-c1ccc2ccn(Cc3ccc(C(F)(F)F)cc3)c2c1 | > 3000 nM | –
Cc1cn(Cc2ccccc2)c2cc(-c3cn(C)c(=O)c4[nH]ccc34)ccc12 | 514 nM | –
Cc1noc(C)c1-c1ccc2c(C)cn(Cc3ccccc3)c2c1 | > 3000 nM | –
CCC(C)n1ccc2ccc(-c3c(C)noc3C)cc21 (stereo unspecified) | > 3000 nM | –
Cc1noc(C)c1-c1ccc2c(C)cn(Cc3cc(F)cc(F)c3)c2c1 | > 3000 nM | –
COc1cc(Cn2ccc3ccc(-c4c(C)noc4C)cc32)cc(OC)c1 | > 3000 nM | –
Cc1sc2c(c1C)C(c1ccc(Cl)cc1)=N[C@@H](C(=O)OC(C)(C)C)c1nnc(C)n1-2 | 92 nM | Activity [2]: Active; Activity [3]: Active; Activity [4]: Active; Activity [5]: Active
O=C1NC=C(c2ccc3ccn(Cc4ccc(F)cc4)c3c2)C2C=CNC12 (stereo unspecified) | 417 nM | –
Cc1noc(C)c1-c1ccc2ccn(Cc3cc(F)cc(F)c3)c2c1 | > 3000 nM | –
CCCC(C)n1ccc2ccc(-c3c(C)noc3C)cc21 (stereo unspecified) | 2440 nM | –
